Measured values reported in BindingDB's records for patent US20240101531 (Xenon Pharmaceuticals, 2024).

Target: Potassium voltage-gated channel subfamily KQT member 2/3 (Homo sapiens, UniProt O43525+O43526)
Assay: In Vitro Assay
From the text: This potassium flux assay employs the cell-permeable, potassium-sensitive dye, IPG-2 AM, to quantify potassium ion flux through potassium channels.In general, TREX HEK 293 or HEK 293 cells were stably transfected with either an inducible or non-inducible expression vector containing the full-length cDNA coding for the desired human KV7.2/KV7.3 or in combination with another full-length cDNA for a second desired human KV7 potassium channel. Potassium channel-expressing cell lines were induced with tetracycline (1 g/mL), if required, and plated on 384-well poly-D-lysine (PDL)-coated plates in culture media (DMEM, containing 10% FBS and 1% L-glutamine). After overnight incubation, culture media was removed and cells were loaded with 5 M IPG-2 AM dye for 1 hour in Assay buffer (140 mM NaCl, 20 mM RbCl, 2 mM CaCl2, 1 mM MgCl2, 10 mM HEPES (4-(2-hydroxyethyl)-1-piperazineethanesulfonic acid buffer), 10 mM glucose, adjusted with Tris to pH 7.4). Excess dye was removed, and cells incubated at room temperature for 20 minutes with or without test compound. […]

Chain of Potassium voltage-gated channel subfamily KQT member 2/3 (O43526 whole entry): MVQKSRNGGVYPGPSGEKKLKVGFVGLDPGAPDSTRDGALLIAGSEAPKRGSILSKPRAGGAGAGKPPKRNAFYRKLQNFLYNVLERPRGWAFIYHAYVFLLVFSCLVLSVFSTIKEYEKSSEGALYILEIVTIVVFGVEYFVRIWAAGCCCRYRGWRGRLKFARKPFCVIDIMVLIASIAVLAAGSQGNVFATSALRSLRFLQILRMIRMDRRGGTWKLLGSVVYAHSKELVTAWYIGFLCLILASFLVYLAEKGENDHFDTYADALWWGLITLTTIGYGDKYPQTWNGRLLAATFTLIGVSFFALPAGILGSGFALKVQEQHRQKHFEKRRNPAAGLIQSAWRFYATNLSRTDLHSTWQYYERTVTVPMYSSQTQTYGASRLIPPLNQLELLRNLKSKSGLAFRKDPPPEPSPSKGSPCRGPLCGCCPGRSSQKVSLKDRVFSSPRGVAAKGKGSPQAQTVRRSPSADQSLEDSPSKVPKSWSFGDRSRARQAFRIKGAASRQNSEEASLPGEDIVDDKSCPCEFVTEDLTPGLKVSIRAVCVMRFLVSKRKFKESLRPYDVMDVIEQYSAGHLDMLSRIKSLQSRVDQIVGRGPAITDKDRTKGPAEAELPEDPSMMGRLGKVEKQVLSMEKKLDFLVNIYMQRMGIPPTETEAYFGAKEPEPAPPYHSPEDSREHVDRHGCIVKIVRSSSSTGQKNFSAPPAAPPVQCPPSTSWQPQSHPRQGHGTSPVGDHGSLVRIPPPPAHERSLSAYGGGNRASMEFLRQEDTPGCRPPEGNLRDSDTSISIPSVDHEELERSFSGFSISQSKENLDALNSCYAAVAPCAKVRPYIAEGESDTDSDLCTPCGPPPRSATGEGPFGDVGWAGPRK
Chain of Potassium voltage-gated channel subfamily KQT member 2/3 (O43525 whole entry): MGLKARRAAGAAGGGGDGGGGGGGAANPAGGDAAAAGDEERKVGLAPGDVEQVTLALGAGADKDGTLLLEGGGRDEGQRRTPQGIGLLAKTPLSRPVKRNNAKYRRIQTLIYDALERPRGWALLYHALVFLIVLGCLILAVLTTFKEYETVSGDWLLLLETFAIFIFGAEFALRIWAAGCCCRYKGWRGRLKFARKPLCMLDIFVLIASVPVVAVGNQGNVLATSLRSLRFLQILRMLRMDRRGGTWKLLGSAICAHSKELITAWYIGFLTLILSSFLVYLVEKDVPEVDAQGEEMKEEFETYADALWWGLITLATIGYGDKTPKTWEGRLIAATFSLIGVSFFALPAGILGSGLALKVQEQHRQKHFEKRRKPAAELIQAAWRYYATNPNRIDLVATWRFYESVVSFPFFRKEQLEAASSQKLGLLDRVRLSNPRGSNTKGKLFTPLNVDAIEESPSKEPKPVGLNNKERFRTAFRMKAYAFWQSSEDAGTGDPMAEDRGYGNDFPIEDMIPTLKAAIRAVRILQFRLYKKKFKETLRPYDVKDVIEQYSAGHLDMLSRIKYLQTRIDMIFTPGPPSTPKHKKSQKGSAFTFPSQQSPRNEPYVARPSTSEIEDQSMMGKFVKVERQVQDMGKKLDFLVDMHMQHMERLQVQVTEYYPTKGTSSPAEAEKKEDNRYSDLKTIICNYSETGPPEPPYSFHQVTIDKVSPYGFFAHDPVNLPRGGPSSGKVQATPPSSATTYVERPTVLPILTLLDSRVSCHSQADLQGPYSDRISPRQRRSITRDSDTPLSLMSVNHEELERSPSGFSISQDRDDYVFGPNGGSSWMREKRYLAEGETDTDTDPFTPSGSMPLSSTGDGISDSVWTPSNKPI

CC1(C)CC1(C#N)COc1ccc2c(Nc3ccc(Cl)nc3)nccc2c1 (stereo unspecified) [US20240101531, Example 330]
EC50: < 1000 nM
